The values that follow come from patent publication US20240246940A1, “HETEROARYL DERIVATIVE COMPOUND AND USE THEREOF” (VORONOI INC., priority 2021, published 2024).

Assay [1] relates to Ba/F3 cells expressing HER2 L869R. Put plainly: Transduced Ba/F3 cell proliferation inhibitory activity, HER2 L869R. In kind it is cell-based. The settings on record: Mus musculus, BaF3, 72 hours. Here is the method:
(§1) For Ba/F3 cells, RPMI-1640 supplemented with 10% FBS and 5 ng/ml IL-3 (R&D Systems) was used. Transduced Ba/F3 cells were cultured by adding 1 μg/ml puromycin (Invitrogen) to the same medium.
(§2) 3000 to 5000 cells were aliquoted into each well of a white clear bottom 96 well plate (Corning) 24 hours before treatment with the compounds of Examples. The compounds of Examples were diluted in dimethyl sulfoxide (three-fold dilution, a total of 12 concentrations) and injected each in an amount of 1 μl to a final concentration of 0.2 nM to 5 μM. For the measurement of living cells, the cells were stored at room temperature for 10 minutes using CellTiter-Glo luminescent cell-viability reagent (Promega) in 72 hours after treatment with the compounds of Examples, and the luminescence intensity thereof was measured using a reader (SynergyNeo, Biotek). Each test was repeated three times. The result values were calculated as a cell growth rate (%) compared to those of the control group. A graph was created using the GraphPad Prism version 8.3.0 program, and GI50 values were calculated.

Assay [2] relates to SK-BR-3 cells (HER2 overexpressing cell line). The assay is described as follows: SK-BR-3 cell proliferation inhibitory activity (CellTiter-Glo, 120 hours). Type of assay: cell-based. The settings on record: Homo sapiens. Put shortly: (§3)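 SK-BR-3 and BT-474 cells were plated at 5000/well 48 h ahead, and N-87 (5000) and HaCaT (3000) 24 h ahead. Compounds were tested at 11 DMSO-diluted concentrations: 0.2 nM–10 μM for SK-BR-3/BT-474, […]–5 μM for N-87 and 0.8 nM–45 μM for HaCaT. GI50 came from growth % versus control, in triplicate.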

In assay [3] the test system is HaCaT cells (EGFR expressing cell line). Put plainly: HaCaT cell proliferation inhibitory activity (CellTiter-Glo, 72 hours). In kind it is cell-based. The settings on record: Homo sapiens. Put shortly:
as §3

In assay [4] the test system is Ba/F3 cells expressing HER2 L756S. Put plainly: Transduced Ba/F3 cell proliferation inhibitory activity, HER2 L756S. In kind it is cell-based. The settings on record: Mus musculus, BaF3; Ba/F3 HER2 L755S, 72 hours. The procedure: as §1, §2
The subject of assay [5] is Ba/F3 cells expressing HER2 T862A. Put plainly: Transduced Ba/F3 cell proliferation inhibitory activity, HER2 T862A. In kind it is cell-based. The settings on record: Mus musculus, BaF3, 72 hours. The procedure:
as §1, §2

Assay [6] deals with BT-474 cells (HER2 overexpressing cell line). Put plainly: BT-474 cell proliferation inhibitory activity (CellTiter-Glo, 120 hours). Type of assay: cell-based. The settings on record: Homo sapiens. Put shortly: as §3
Assay [7] relates to N-87 cells (HER2 overexpressing cell line). Put plainly: N-87 cell proliferation inhibitory activity (CellTiter-Glo, 72 hours). Type of assay: cell-based. Put shortly: as §3
The target in a further assay is T1, HER2 (Homo sapiens, UniProt P04626).
T1 construct: purchased Reaction Biology Corp
Put plainly: Biochemical kinase assay for HER2 (Reaction Biology Corp), ATP 10 μM, 10-dose IC50. The procedure: (§4) Biochemical kinase assays for HER2 and EGFR were performed by Reaction Biology Corp (San Diego, USA).

For another assay, the target named is T2, EGFR (Homo sapiens, UniProt P00533).
T2 construct: purchased Reaction Biology Corp
The assay is described as follows: Biochemical kinase assay for EGFR (Reaction Biology Corp), ATP 10 μM, 10-dose IC50. Here is the method:
as §4

Assay [8] deals with Ba/F3 cells expressing HER2 WT. The assay is described as follows: Transduced Ba/F3 cell proliferation inhibitory activity, HER2 WT. Type of assay: cell-based. The settings on record: Mus musculus, BaF3, 72 hours. Here is the method: as §1, §2
The subject of assay [9] is Ba/F3 cells expressing HER2 T798I. Put plainly: Transduced Ba/F3 cell proliferation inhibitory activity, HER2 T798I. Type of assay: cell-based. The settings on record: Mus musculus, BaF3, 72 hours. The procedure:
as §1, §2

pIC50: −log10 of the molar value. Where only a bound is given, the exact number is not on record here.

T1 sequence (P04626 23-1255): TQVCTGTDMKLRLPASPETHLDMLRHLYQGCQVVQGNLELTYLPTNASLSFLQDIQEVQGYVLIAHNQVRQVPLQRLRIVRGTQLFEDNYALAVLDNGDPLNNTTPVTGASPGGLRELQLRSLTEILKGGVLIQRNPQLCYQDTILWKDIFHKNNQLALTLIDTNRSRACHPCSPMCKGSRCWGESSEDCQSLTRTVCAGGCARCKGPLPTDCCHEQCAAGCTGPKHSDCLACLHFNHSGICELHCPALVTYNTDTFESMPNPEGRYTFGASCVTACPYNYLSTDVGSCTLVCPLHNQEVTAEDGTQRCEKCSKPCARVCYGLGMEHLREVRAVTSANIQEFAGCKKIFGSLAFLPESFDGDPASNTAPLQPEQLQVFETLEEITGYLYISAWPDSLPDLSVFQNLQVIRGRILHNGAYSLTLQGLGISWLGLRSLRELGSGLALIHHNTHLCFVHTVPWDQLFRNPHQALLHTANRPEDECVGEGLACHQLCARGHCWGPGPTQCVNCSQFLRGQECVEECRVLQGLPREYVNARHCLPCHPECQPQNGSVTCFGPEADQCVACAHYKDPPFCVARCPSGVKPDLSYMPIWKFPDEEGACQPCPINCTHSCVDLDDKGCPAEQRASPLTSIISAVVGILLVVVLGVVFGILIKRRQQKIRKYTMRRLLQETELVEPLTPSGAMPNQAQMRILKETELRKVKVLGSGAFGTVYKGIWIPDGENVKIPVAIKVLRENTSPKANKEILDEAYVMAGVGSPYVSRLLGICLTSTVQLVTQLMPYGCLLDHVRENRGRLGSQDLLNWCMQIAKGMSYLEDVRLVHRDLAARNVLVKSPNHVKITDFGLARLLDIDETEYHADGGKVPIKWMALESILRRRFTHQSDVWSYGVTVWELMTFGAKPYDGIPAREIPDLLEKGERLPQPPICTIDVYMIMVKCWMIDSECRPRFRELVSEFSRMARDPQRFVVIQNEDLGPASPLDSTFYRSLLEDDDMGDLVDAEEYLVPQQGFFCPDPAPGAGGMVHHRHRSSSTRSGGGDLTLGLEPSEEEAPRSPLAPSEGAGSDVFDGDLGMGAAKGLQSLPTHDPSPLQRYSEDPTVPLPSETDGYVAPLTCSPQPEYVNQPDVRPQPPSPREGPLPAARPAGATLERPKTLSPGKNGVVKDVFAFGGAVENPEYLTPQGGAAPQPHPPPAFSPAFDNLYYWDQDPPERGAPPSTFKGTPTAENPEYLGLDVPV
T2 sequence (P00533 25-1210): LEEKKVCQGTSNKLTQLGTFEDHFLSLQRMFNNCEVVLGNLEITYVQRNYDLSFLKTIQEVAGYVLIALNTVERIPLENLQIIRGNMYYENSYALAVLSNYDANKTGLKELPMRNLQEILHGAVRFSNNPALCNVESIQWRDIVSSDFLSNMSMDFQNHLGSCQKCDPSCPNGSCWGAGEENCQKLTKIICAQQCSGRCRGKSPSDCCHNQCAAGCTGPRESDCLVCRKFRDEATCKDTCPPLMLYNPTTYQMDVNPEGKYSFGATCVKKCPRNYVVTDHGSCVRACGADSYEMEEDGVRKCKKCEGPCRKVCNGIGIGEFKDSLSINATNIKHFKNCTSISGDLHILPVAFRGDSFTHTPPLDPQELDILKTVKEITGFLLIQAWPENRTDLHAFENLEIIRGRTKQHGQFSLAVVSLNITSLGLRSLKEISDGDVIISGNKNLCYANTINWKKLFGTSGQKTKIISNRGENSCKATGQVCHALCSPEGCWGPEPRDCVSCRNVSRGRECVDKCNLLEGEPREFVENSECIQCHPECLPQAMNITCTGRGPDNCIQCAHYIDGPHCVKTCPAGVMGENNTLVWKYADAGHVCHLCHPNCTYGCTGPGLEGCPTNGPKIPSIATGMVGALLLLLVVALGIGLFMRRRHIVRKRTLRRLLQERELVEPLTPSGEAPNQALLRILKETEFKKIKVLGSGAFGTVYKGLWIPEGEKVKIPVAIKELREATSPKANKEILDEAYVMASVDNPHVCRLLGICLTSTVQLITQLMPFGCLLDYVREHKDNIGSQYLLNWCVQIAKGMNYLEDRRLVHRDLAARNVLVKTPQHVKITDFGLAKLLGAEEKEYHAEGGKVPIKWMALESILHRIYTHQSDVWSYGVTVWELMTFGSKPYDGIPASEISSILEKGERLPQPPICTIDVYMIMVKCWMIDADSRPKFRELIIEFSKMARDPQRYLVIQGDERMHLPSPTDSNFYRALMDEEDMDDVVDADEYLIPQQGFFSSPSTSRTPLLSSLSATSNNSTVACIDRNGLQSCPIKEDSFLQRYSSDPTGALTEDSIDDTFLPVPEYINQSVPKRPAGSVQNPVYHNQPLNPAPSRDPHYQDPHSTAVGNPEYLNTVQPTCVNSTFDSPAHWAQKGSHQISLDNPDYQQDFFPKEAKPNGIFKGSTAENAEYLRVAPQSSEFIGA

Turning to `C=CC(=O)N1CCC(Oc2cc3c(Nc4cc(-c5ccco5)ccc4OC)ncnc3cc2OC)C(F)C1` (stereo not shown) [Example 112, 1-(3-fluoro-4-((4-((5-(furan-2-yl)-2-methoxyphenyl)amino)-7-methoxy-quinazolin-6-yl)oxy)piperidin-1-yl)prop-2-en-1-one], the 50% growth inhibitory concentration (GI50) was not above 50 nM in assay [1]; not above 150 nM in assay [2]; not above 150 nM in assay [3]; not above 50 nM in [4]; not above 50 nM in assay [5]; not above 150 nM in [6]. Moreover, in [7], the GI50 was not above 150 nM.
Regarding `COc1cc2ncnc(Nc3cc(-c4ccc(F)cc4F)ccc3OC)c2cc1NC(=O)/C=C/[C@H]1CCCN1C` [Example 305, (R,E)-N-(4-((2′,4′-difluoro-4-methoxy-[1,1′-biphenyl]-3-yl)amino)-7-methoxyquinazolin-6-yl)-3-(1-methylpyrrolidin-2-yl)acrylamide], the pIC50 on HER2 and against EGFR was not below 7.30 each time. The GI50 in assay [2] is not above 150 nM; in assay [8], not above 50 nM; in [3], not above 150 nM; in [4], not above 50 nM; in [5] it was not above 50 nM; in assay [6], not above 150 nM. The GI50 is not above 50 nM in [9] and not above 150 nM in assay [7].
Take `C=CC(=O)N1CCC(Oc2cc3c(Nc4cc(-c5cccs5)ccc4OC)ncnc3cc2OC)CC1` [Example 78, 1-(4-((7-methoxy-4-((2-methoxy-5-(thiophen-2-yl)phenyl)amino)quinazolin-6-yl)oxy)piperidin-1-yl)prop-2-en-1-one]: the figures for the GI50 in [1], in assay [2] and in assay [9] were not above 50 nM, not above 150 nM and not above 50 nM, respectively.
Regarding `C=CC(=O)N1CCC(Nc2cc3c(Nc4cc(-c5ccco5)ccc4OC)ncnc3cc2OCC)CC1` [Example 300, 1-(4-((7-ethoxy-4-((5-(furan-2-yl)-2-methoxyphenyl)amino)quinazolin-6-yl)amino)piperidin-1-yl)prop-2-en-1-one], the GI50 in assay [8] is not above 50 nM; in assay [3] it was not above 150 nM; in assay [4], not above 50 nM; in assay [5], not above 50 nM; in [6], not above 150 nM; in [9] it was 100 to 500 nM. The GI50 in [7] is not above 150 nM.
In the case of `C=CC(=O)N1CCC(Oc2cc3c(Nc4cc(-c5ccc(F)cc5F)ccc4OC)ncnc3cc2OC)C(F)C1` (stereo not shown) [Example 143, 1-(4-((4-((2′,4′-difluoro-4-methoxy-[1,1′-biphenyl]-3-yl)amino)-7-methoxy-quinazolin-6-yl)oxy)-3-fluoropiperidin-1-yl)prop-2-en-1-one], the GI50 in assay [1] was not above 50 nM; in [2], not above 150 nM; in assay [3], not above 150 nM; in assay [4], not above 50 nM; in [5] it was not above 50 nM; in assay [6] it was not above 150 nM. The GI50 in assay [7] was not above 150 nM.
Compound `C=CC(=O)N1CCC(Oc2cc3c(Nc4cc(-c5ccc(F)cc5F)c(F)cc4OC)ncnc3cc2OC)CC1` [Example 157, 1-(4-((7-methoxy-4-((2′,4′,6-trifluoro-4-methoxy-[1,1′-biphenyl]-3-yl)amino)quinazolin-6-yl)oxy)piperidin-1-yl)prop-2-en-1-one] gave a pIC50 at HER2 not below 7.30. For the same compound, the GI50 in assay [3], in assay [6] and in [7] was not above 150 nM each time.
Take `COc1cc2ncnc(Nc3cc(-c4ccc(F)cc4F)ccc3OC)c2cc1NC(=O)/C(F)=C\[C@H]1CCCN1C` [Example 304, (R,E)-N-(4-((2′,4′-difluoro-4-methoxy-[1,1′-biphenyl]-3-yl)amino)-7-methoxyquinazolin-6-yl)-2-fluoro-3-(1-methylpyrrolidin-2-yl)acrylamide]: the pIC50 against HER2 and on EGFR was not below 7.30 in each case. Also, the GI50 in assay [3], in [6] and in [7] was not above 150 nM each time.
